How the values were obtained:
blackgrass = test: Test C preemergence/postemergence greenhouse plant response rating 0 to 100; type: in vivo, Alopecurus myosuroides; details: POSTEMERGENCE; for Plant response rating, Blackgrass: 0 to 100 scale
How it was run: (§1)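 Compounds in non-phytotoxic solvent applied preemergence to sandy loam one day after planting, postemergence at the 1–4 leaf stage, or to ~2.5 cm floodwater over silt loam.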

chickweed = test: as above; type: in vivo, Stellaria media; details: POSTEMERGENCE; for Plant response rating, Chickweed: 0 to 100 scale
How it was run: as §1

giant foxtail [1] = test: as above; type: in vivo, Setaria faberii; details: POSTEMERGENCE; for Plant response rating, Giant foxtail: 0 to 100 scale
How it was run: as §1

bedstraw = test: Test B preemergence/postemergence greenhouse plant response rating 0 to 10; type: in vivo, Galium aparine; details: for Plant response rating, Bedstraw: 0 to 10 scale
How it was run: (§2)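 Test chemicals were sprayed onto freshly planted seed and, concurrently, onto young plants between the one and four leaf stage. After a twelve- to sixteen-day greenhouse period, each species was visually compared with untreated controls.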

velvetleaf = test: as above; type: in vivo, Abutilon theophrasti; details: 0 to 10 scale
How it was run: as §2

morningglory [2] = test: Test C preemergence/postemergence greenhouse plant response rating 0 to 100; type: in vivo, Ipomoea hederacea; details: POSTEMERGENCE; for Plant response rating, Morningglory: 0 to 100 scale
How it was run: as §1

cocklebur = test: Test B preemergence/postemergence greenhouse plant response rating 0 to 10; type: in vivo, Xanthium pensylvanicum; details: for Plant response rating, Cocklebur: 0 to 10 scale
How it was run: as §2

soybean [3] = test: as above; type: in vivo, Glycine max; details: 0 to 10 scale
How it was run: as §2

giant foxtail [4] = test: as above; type: in vivo, Setaria faberii; details: 0 to 10 scale
How it was run: as §2

soybean [5] = test: Test C preemergence/postemergence greenhouse plant response rating 0 to 100; type: in vivo, Glycine max; details: POSTEMERGENCE; for Plant response rating, Soybean: 0 to 100 scale
How it was run: as §1

sorghum = test: as above; type: in vivo, Sorghum bicolor; details: POSTEMERGENCE; for Plant response rating, Sorghum: 0 to 100 scale
How it was run: as §1

rape = test: as above; type: in vivo, Brassica napus; details: POSTEMERGENCE; for Plant response rating, Rape: 0 to 100 scale
How it was run: as §1

morningglory [6] = test: Test B preemergence/postemergence greenhouse plant response rating 0 to 10; type: in vivo, Ipomoea hederacea; details: 0 to 10 scale
How it was run: as §2

barley [7] = test: as above; type: in vivo, Hordeum vulgare; details: for Plant response rating, Barley: 0 to 10 scale
How it was run: as §2

cheatgrass = test: as above; type: in vivo, Bromus secalinus; details: for Plant response rating, Cheatgrass: 0 to 10 scale
How it was run: as §2

lambsquarters = test: as above; type: in vivo, Chenopodium album; details: 0 to 10 scale
How it was run: as §2

barley [8] = test: Test C preemergence/postemergence greenhouse plant response rating 0 to 100; type: in vivo, Hordeum vulgare; details: POSTEMERGENCE; for Plant response rating Barley Igri: 0 to 100 scale
How it was run: as §1

rice = test: Test C flood test plant response rating 0 to 100; type: in vivo, Oryza sativa; details: for Plant response rating Rice Japonica: flood test species listed under POSTEMERGENCE, 0 to 100 scale
How it was run: as §1

With `CC(C)COc1cc(-c2nn3c(c2Cl)CCCC3)c(F)cc1Cl` [Compound 30] the “Plant response rating, Blackgrass” value (blackgrass; 62 g/ha) was 60, the “Plant response rating, Blackgrass” value (blackgrass; 250 g/ha) was 80 and the “Plant response rating (0 to 100), Blackgrass” value (blackgrass; Rate 4 g/ha) was 10. The “Plant response rating (0 to 100), Blackgrass” value (blackgrass; Rate 16 g/ha) was 20, the “Plant response rating, Chickweed” value (chickweed; 62 g/ha) was 50 and the “Plant response rating, Chickweed” value (chickweed; 250 g/ha) was 70. For the same compound, the “Plant response rating (0 to 100), Chickweed” value (chickweed; Rate 4 g/ha) was 10, the “Plant response rating (0 to 100), Chickweed” value (chickweed; Rate 16 g/ha) was 20 and the “Plant response rating, Giant foxtail” value (giant foxtail [1]; 62 g/ha) was 50. The “Plant response rating, Giant foxtail” value (giant foxtail [1]; 250 g/ha) was 80, the “Plant response rating (0 to 100), Giant foxtail” value (giant foxtail [1]; Rate 4 g/ha) was 0 and the “Plant response rating (0 to 100), Giant foxtail” value (giant foxtail [1]; Rate 16 g/ha) was 20. For the same compound, the “Plant response rating (0 to 10 scale), Bedstraw” value (bedstraw; POSTEMERGENCE, Rate 50 g/ha) was 8, the “Plant response rating, Bedstraw” value (bedstraw; POSTEMERGENCE, Rate 200 g/ha) was 10 and the “Plant response rating, Bedstraw” value (bedstraw; PREEMERGENCE, Rate 50 g/ha) was 0. For the same compound, the “Plant response rating, Bedstraw” value (bedstraw; Rate 200 g/ha, PREEMERGENCE) was 9, the “Plant response rating, Velvetleaf” value (velvetleaf; POSTEMERGENCE, Rate 50 g/ha) was 7 and the “Plant response rating, Velvetleaf” value (velvetleaf; PREEMERGENCE, Rate 50 g/ha) was 5. The “Plant response rating, Velvetleaf” value (velvetleaf; Rate 200 g/ha, POSTEMERGENCE) was 10, the “Plant response rating, Velvetleaf” value (velvetleaf; Rate 200 g/ha, PREEMERGENCE) was 10 and the “Plant response rating, Morningglory” value (morningglory [2]; 62 g/ha) was 80. The “Plant response rating, Morningglory” value (morningglory [2]; 250 g/ha) was 90, the “Plant response rating (0 to 100), Morningglory” value (morningglory [2]; Rate 4 g/ha) was 30 and the “Plant response rating (0 to 100), Morningglory” value (morningglory [2]; Rate 16 g/ha) was 50. The “Plant response rating (0 to 10 scale), Cocklebur” value (cocklebur; POSTEMERGENCE, Rate 50 g/ha) was 7, the “Plant response rating, Cocklebur” value (cocklebur; POSTEMERGENCE, Rate 200 g/ha) was 10 and the “Plant response rating, Cocklebur” value (cocklebur; PREEMERGENCE, Rate 50 g/ha) was 0. For the same compound, the “Plant response rating, Cocklebur” value (cocklebur; Rate 200 g/ha, PREEMERGENCE) was 4, the “Plant response rating, Soybean” value (soybean [3]; POSTEMERGENCE, Rate 50 g/ha) was 7 and the “Plant response rating, Soybean” value (soybean [3]; PREEMERGENCE, Rate 50 g/ha) was 0. For the same compound, the “Plant response rating, Soybean” value (soybean [3]; Rate 200 g/ha, POSTEMERGENCE) was 2, the “Plant response rating, Soybean” value (soybean [3]; Rate 200 g/ha, PREEMERGENCE) was 2 and the “Plant response rating, Giant foxtail” value (giant foxtail [4]; POSTEMERGENCE, Rate 50 g/ha) was 4. The “Plant response rating, Giant foxtail” value (giant foxtail [4]; PREEMERGENCE, Rate 50 g/ha) was 7, the “Plant response rating, Giant foxtail” value (giant foxtail [4]; Rate 200 g/ha, POSTEMERGENCE) was 5 and the “Plant response rating, Giant foxtail” value (giant foxtail [4]; Rate 200 g/ha, PREEMERGENCE) was 8. For the same compound, the “Plant response rating, Soybean” value (soybean [5]; 62 g/ha) was 50, the “Plant response rating, Soybean” value (soybean [5]; 250 g/ha) was 50 and the “Plant response rating (0 to 100), Soybean” value (soybean [5]; Rate 4 g/ha) was 0. For the same compound, the “Plant response rating (0 to 100), Soybean” value (soybean [5]; Rate 16 g/ha) was 20, the “Plant response rating, Sorghum” value (sorghum; 62 g/ha) was 20 and the “Plant response rating, Sorghum” value (sorghum; 250 g/ha) was 40. The “Plant response rating (0 to 100), Sorghum” value (sorghum; Rate 4 g/ha) was 0, the “Plant response rating (0 to 100), Sorghum” value (sorghum; Rate 16 g/ha) was 0 and the “Plant response rating, Rape” value (rape; 62 g/ha) was 100. The “Plant response rating, Rape” value (rape; 250 g/ha) was 100, the “Plant response rating (0 to 100), Rape” value (rape; Rate 4 g/ha) was 50 and the “Plant response rating (0 to 100), Rape” value (rape; Rate 16 g/ha) was 80. The “Plant response rating, Morningglory” value (morningglory [6]; POSTEMERGENCE, Rate 50 g/ha) was 8, the “Plant response rating, Morningglory” value (morningglory [6]; PREEMERGENCE, Rate 50 g/ha) was 2 and the “Plant response rating, Morningglory” value (morningglory [6]; Rate 200 g/ha, POSTEMERGENCE) was 9. The “Plant response rating, Morningglory” value (morningglory [6]; Rate 200 g/ha, PREEMERGENCE) was 5, the “Plant response rating (0 to 10 scale), Barley” value (barley [7]; POSTEMERGENCE, Rate 50 g/ha) was 5 and the “Plant response rating, Barley” value (barley [7]; POSTEMERGENCE, Rate 200 g/ha) was 6. For the same compound, the “Plant response rating, Barley” value (barley [7]; PREEMERGENCE, Rate 50 g/ha) was 0, the “Plant response rating, Barley” value (barley [7]; Rate 200 g/ha, PREEMERGENCE) was 2 and the “Plant response rating (0 to 10 scale), Cheatgrass” value (cheatgrass; POSTEMERGENCE, Rate 50 g/ha) was 6. The “Plant response rating, Cheatgrass” value (cheatgrass; POSTEMERGENCE, Rate 200 g/ha) was 7, the “Plant response rating, Cheatgrass” value (cheatgrass; PREEMERGENCE, Rate 50 g/ha) was 0 and the “Plant response rating, Cheatgrass” value (cheatgrass; Rate 200 g/ha, PREEMERGENCE) was 4. The “Plant response rating, Lambsquarter” value (lambsquarters; POSTEMERGENCE, Rate 50 g/ha) was 10, the “Plant response rating, Lambsquarter” value (lambsquarters; PREEMERGENCE, Rate 50 g/ha) was 8 and the “Plant response rating, Lambsquarter” value (lambsquarters; Rate 200 g/ha, POSTEMERGENCE) was 10. For the same compound, the “Plant response rating, Lambsquarter” value (lambsquarters; Rate 200 g/ha, PREEMERGENCE) was 10, the “Plant response rating Barley Igri” value (barley [8]; 62 g/ha) was 50 and the “Plant response rating Barley Igri” value (barley [8]; 250 g/ha) was 70. For the same compound, the “Plant response rating (0 to 100), Barley Igri” value (barley [8]; Rate 4 g/ha) was 30, the “Plant response rating (0 to 100), Barley Igri” value (barley [8]; Rate 16 g/ha) was 30 and the “Plant response rating (0 to 100), Rice Japonica” value (rice; POSTEMERGENCE section, flood test, Rate 4 g/ha) was 35. For the same compound, the “Plant response rating (0 to 100), Rice Japonica” value (rice; Rate 16 g/ha, under POSTEMERGENCE head (flood test species)) was 40, the “Plant response rating Rice Japonica” value (rice; 62 g/ha) was 50 and the “Plant response rating Rice Japonica” value (rice; 250 g/ha) was 60.

— patent US6358885B1, “Substituted phenylheterocyclic herbicides” (Mississippi State University, priority 1992, dated 2002)
